Measurements taken from patent publication US12077503B2, “Substituted cyclic amides and their use as herbicides” (FMC CORPORATION, priority 2015, dated 2024).

Experiments:
Format in all cases: in vivo
[1] = system: rice (Oryza sativa); test: Test C flooded paddy test; conditions: Flood, 0 is no effect, 100 is complete control
Method in brief: (§1)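 Scores express visual response relative to untreated controls, 0 meaning no effect and 100 complete control, assessed 13 to 15 d after treatment in the greenhouse. Compound went into water flooded 3 cm above soil around 2-leaf plants.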

[2] = system: barnyardgrass (Echinochloa crus-galli); test: Test C flooded paddy test; conditions: Flood, 0 is no effect, 100 is complete control
Method in brief: as §1

[3] = system: sedge, umbrella (small-flower umbrella sedge, Cyperus difformis); test: Test C flooded paddy test; conditions: Flood, 0 is no effect, 100 is complete control
Method in brief: as §1

[4] = system: ducksalad (Heteranthera limosa); test: Test C flooded paddy test; conditions: Flood, 0 is no effect, 100 is complete control
Method in brief: as §1

[5] = system: crabgrass, large (Digitaria sanguinalis); test: Test A preemergence; conditions: for Plant response rating, Crabgrass, Large: 125 g ai/ha, preemergence, 0 to 100 scale (0 no effect, 100 complete control); for Crabgrass, Large plant response rating (0 to 100 scale): Preemergence, 500 g ai/ha, 0 is no effect, 100 is complete control
Method in brief: (§2)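 Treatment is preemergence as a directed soil spray after planting, or postemergence at the one- to two-leaf stage, with test chemical in a non-phytotoxic solvent mixture plus surfactant. Plants stay in the greenhouse about 10 d before visual injury scoring on a 0 to 100 scale versus untreated controls.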

[6] = system: corn (Zea mays); test: Test A preemergence; conditions: for Plant response rating, Corn: 125 g ai/ha, preemergence, 0 to 100 scale (0 no effect, 100 complete control); for Corn plant response rating (0 to 100 scale): Preemergence, 500 g ai/ha, 0 is no effect, 100 is complete control
Method in brief: as §2

[7] = system: velvetleaf (Abutilon theophrasti); test: Test A preemergence; conditions: for Plant response rating, Velvetleaf: 125 g ai/ha, preemergence, 0 to 100 scale (0 no effect, 100 complete control); for Velvetleaf plant response rating (0 to 100 scale): Preemergence, 500 g ai/ha, 0 is no effect, 100 is complete control
Method in brief: as §2

[8] = system: morningglory (Ipomoea spp.); test: Test A preemergence; conditions: for Plant response rating, Morningglory: 125 g ai/ha, preemergence, 0 to 100 scale (0 no effect, 100 complete control); for Morningglory plant response rating (0 to 100 scale): Preemergence, 500 g ai/ha, 0 is no effect, 100 is complete control
Method in brief: as §2

[9] = system: pigweed (Amaranthus retroflexus); test: Test A preemergence; conditions: for Plant response rating, Pigweed: 125 g ai/ha, preemergence, 0 to 100 scale (0 no effect, 100 complete control); for Pigweed plant response rating (0 to 100 scale): Preemergence, 500 g ai/ha, 0 is no effect, 100 is complete control
[10] = system: barnyardgrass (Echinochloa crus-galli); test: Test A preemergence; conditions: for Plant response rating, Barnyardgrass: 125 g ai/ha, preemergence, 0 to 100 scale (0 no effect, 100 complete control); for Barnyardgrass plant response rating (0 to 100 scale): Preemergence, 500 g ai/ha, 0 is no effect, 100 is complete control
Method in brief: as §2

[11] = system: giant foxtail (Setaria faberii); test: Test A preemergence; conditions: for Plant response rating, Foxtail, Giant: 125 g ai/ha, preemergence, 0 to 100 scale (0 no effect, 100 complete control); for Foxtail, Giant plant response rating (0 to 100 scale): Preemergence, 500 g ai/ha, 0 is no effect, 100 is complete control
Method in brief: as §2

[12] = system: wheat (Triticum aestivum); test: Test A preemergence; conditions: for Plant response rating, Wheat: 125 g ai/ha, preemergence, 0 to 100 scale (0 no effect, 100 complete control); for Wheat plant response rating (0 to 100 scale): Preemergence, 500 g ai/ha, 0 is no effect, 100 is complete control
Method in brief: as §2

[13] = system: crabgrass, large (Digitaria sanguinalis); test: Test A postemergence
Method in brief: as §2

[14] = system: corn (Zea mays); test: Test A postemergence
Method in brief: as §2

[15] = system: velvetleaf (Abutilon theophrasti); test: Test A postemergence
Method in brief: as §2

[16] = system: morningglory (Ipomoea spp.); test: Test A postemergence
Method in brief: as §2

[17] = system: pigweed (Amaranthus retroflexus); test: Test A postemergence
Method in brief: as §2

[18] = system: barnyardgrass (Echinochloa crus-galli); test: Test A postemergence
Method in brief: as §2

[19] = system: giant foxtail (Setaria faberii); test: Test A postemergence
Method in brief: as §2

[20] = system: wheat (Triticum aestivum); test: Test A postemergence
Method in brief: as §2

[21] = system: rice (Oryra sativa); test: Test B flooded paddy test; conditions: Flood, 0 to 100 scale where 0 is no effect and 100 is complete control, 13 to 15 d
Method in brief: (§3)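 Visual ratings (0 none to 100 complete control) are relative to untreated plants, taken 13–15 d after treatment in a greenhouse. Test material went straight into floodwater standing 3 cm above the soil, kept constant, on plants at the 2-leaf stage.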

[22] = system: barnyardgrass (Echinochloa crus-galli); test: Test B flooded paddy test; conditions: Flood, 0 to 100 scale where 0 is no effect and 100 is complete control, 13 to 15 d
Method in brief: as §3

[23] = system: sedge, umbrella (small-flower umbrella sedge, Cyperus difformis); test: Test B flooded paddy test; conditions: Flood, 0 to 100 scale where 0 is no effect and 100 is complete control, 13 to 15 d
Method in brief: as §3

[24] = system: ducksalad (Heteranthera limosa); test: Test B flooded paddy test; conditions: Flood, 0 to 100 scale where 0 is no effect and 100 is complete control, 13 to 15 d
Method in brief: as §3

[25] = 500 g ai/ha, postemergence, 0 to 100 scale, 0 no effect, 100 complete control
[26] = Postemergence, 125 g ai/ha, visual injury, 0 to 100 scale (0 no effect, 100 complete control), approx. 10 d

| SMILES | Plant response rating, Crabgrass, Large [5] | Crabgrass, Large plant response rating (0 to 100 scale) [5] | Plant response rating, Corn [6] | Corn plant response rating (0 to 100 scale) [6] | Plant response rating, Velvetleaf [7] | Velvetleaf plant response rating (0 to 100 scale) [7] | Plant response rating, Morningglory [8] | Morningglory plant response rating (0 to 100 scale) [8] | Plant response rating, Pigweed [9] | Pigweed plant response rating (0 to 100 scale) [9] | Plant response rating, Barnyardgrass [10] | Barnyardgrass plant response rating (0 to 100 scale) [10] | Plant response rating, Foxtail, Giant [11] | Foxtail, Giant plant response rating (0 to 100 scale) [11] | Plant response rating, Wheat [12] | Wheat plant response rating (0 to 100 scale) [12] | Plant response rating, Crabgrass, Large [13, 25] | Plant response rating, Crabgrass, Large [13, 26] | Plant response rating, Corn [14, 25] | Plant response rating, Corn [14, 26] | also measured |
| --- | --- | --- | --- | --- | --- | --- | --- | --- | --- | --- | --- | --- | --- | --- | --- | --- | --- | --- | --- | --- | --- |
| O=C1NCC(c2ccoc2)C1C(=O)Nc1ccccc1F (racemic) [Compound 356] | 0 | 0 | 0 | 0 | 0 | 0 | 0 | 0 | 0 | 0 | 0 | 0 | 0 | 0 | 0 | 0 | 0 | 0 | 0 | 0 | Plant response rating (scale of 0 to 100), Rice ([1]; 62 g ai/ha): 0; Plant response rating (scale of 0 to 100), Rice ([1]; 250 g ai/ha): 0; Plant response rating (scale of 0 to 100), Barnyardgrass ([2]; 62 g ai/ha): 0; Plant response rating (scale of 0 to 100), Barnyardgrass ([2]; 250 g ai/ha): 0; Plant response rating (scale of 0 to 100), Sedge, Umbrella ([3]; 62 g ai/ha): 0; Plant response rating (scale of 0 to 100), Sedge, Umbrella ([3]; 250 g ai/ha): 0; Plant response rating (scale of 0 to 100), Ducksalad ([4]; 62 g ai/ha): 0; Plant response rating (scale of 0 to 100), Ducksalad ([4]; 250 g ai/ha): 0; Plant response rating, Velvetleaf [15, 25]: 0; Plant response rating, Velvetleaf [15, 26]: 0; Plant response rating, Morningglory [16, 25]: 0; Plant response rating, Morningglory [16, 26]: 0; Plant response rating, Pigweed [17, 25]: 0; Plant response rating, Pigweed [17, 26]: 0; Plant response rating, Barnyardgrass [18, 25]: 0; Plant response rating, Barnyardgrass [18, 26]: 0; Plant response rating, Foxtail, Giant [19, 25]: 0; Plant response rating, Foxtail, Giant [19, 26]: 0; Plant response rating, Wheat [20, 25]: 0; Plant response rating, Wheat [20, 26]: 0 |
| O=C1NCC(c2ccc(-c3ccccc3)cc2)C1C(=O)Nc1ccccc1F (racemic) [Compound 365] | 0 | 0 | 0 | 0 | 0 | 0 | 0 | 0 | 0 | 0 | 0 | 0 | 0 | 0 | 0 | 0 | 0 | 0 | 0 | 0 | Plant response rating, Rice ([21]; 1000 g ai/ha): 0; Plant response rating, Barnyardgrass ([22]; 1000 g ai/ha): 0; Plant response rating, Sedge, Umbrella ([23]; 1000 g ai/ha): 0; Plant response rating, Ducksalad ([24]; 1000 g ai/ha): 0; Plant response rating, Velvetleaf [15, 25]: 0; Plant response rating, Velvetleaf [15, 26]: 0; Plant response rating, Morningglory [16, 25]: 0; Plant response rating, Morningglory [16, 26]: 0; Plant response rating, Pigweed [17, 25]: 0; Plant response rating, Pigweed [17, 26]: 0; Plant response rating, Barnyardgrass [18, 25]: 0; Plant response rating, Barnyardgrass [18, 26]: 0; Plant response rating, Foxtail, Giant [19, 25]: 0; Plant response rating, Foxtail, Giant [19, 26]: 0; Plant response rating, Wheat [20, 25]: 0; Plant response rating, Wheat [20, 26]: 0 |
| O=C1NCC(c2ccc(-c3ccccc3)cc2)C1C(=O)Nc1cccc(F)c1F (racemic) [Compound 366] | 0 | 0 | 0 | 0 | 0 | 0 | 0 | 0 | 0 | 0 | 0 | 0 | 0 | 0 | 0 | 0 | 0 | 0 | 0 | 0 | Plant response rating, Rice ([21]; 1000 g ai/ha): 0; Plant response rating, Barnyardgrass ([22]; 1000 g ai/ha): 0; Plant response rating, Sedge, Umbrella ([23]; 1000 g ai/ha): 0; Plant response rating, Ducksalad ([24]; 1000 g ai/ha): 0; Plant response rating, Velvetleaf [15, 25]: 0; Plant response rating, Velvetleaf [15, 26]: 0; Plant response rating, Morningglory [16, 25]: 0; Plant response rating, Morningglory [16, 26]: 0; Plant response rating, Pigweed [17, 25]: 0; Plant response rating, Pigweed [17, 26]: 0; Plant response rating, Barnyardgrass [18, 25]: 0; Plant response rating, Barnyardgrass [18, 26]: 0; Plant response rating, Foxtail, Giant [19, 25]: 0; Plant response rating, Foxtail, Giant [19, 26]: 0; Plant response rating, Wheat [20, 25]: 0; Plant response rating, Wheat [20, 26]: 0 |
| Nc1cccc(C2CNC(=O)C2C(=O)Nc2cccc(F)c2F)c1 (stereo not shown) [Compound 354] | 0 | 0 | 0 | 0 | 0 | 0 | 0 | 0 | 0 | 0 | 0 | 0 | 0 | 0 | 0 | 0 | 0 | 0 | 0 | 0 | Plant response rating, Rice ([21]; 250 g ai/ha): 20; Plant response rating, Barnyardgrass ([22]; 250 g ai/ha): 0; Plant response rating, Sedge, Umbrella ([23]; 250 g ai/ha): 20; Plant response rating, Ducksalad ([24]; 250 g ai/ha): 0; Plant response rating, Velvetleaf [15, 25]: 0; Plant response rating, Velvetleaf [15, 26]: 0; Plant response rating, Morningglory [16, 25]: 0; Plant response rating, Morningglory [16, 26]: 0; Plant response rating, Pigweed [17, 25]: 0; Plant response rating, Pigweed [17, 26]: 0; Plant response rating, Barnyardgrass [18, 25]: 0; Plant response rating, Barnyardgrass [18, 26]: 0; Plant response rating, Foxtail, Giant [19, 25]: 0; Plant response rating, Foxtail, Giant [19, 26]: 0; Plant response rating, Wheat [20, 25]: 0; Plant response rating, Wheat [20, 26]: 0 |
